Assay results as given in US20240043396A1, “METHODS OF TREATING OCULAR FIBROTIC PATHOLOGIES” (Mayo Foundation for Medical Education and Research, priority 2021, published 2024).

What was measured:
Format in all cases: cell-based, human
ARPE-19 cells [1] = test: qPCR of profibrotic gene expression in ARPE-19 cells ±TGFβ
Method: Cell culture: The human RPE cell line ARPE-19 was purchased from ATCC and cultured in Dulbecco's Modified Eagle Medium/Nutrient Mixture F-12 (DMEM/F-12) supplemented with 2.50 mM L-Glutamine, 15 mM HEPES Buffer, 10% fetal bovine serum (FBS), and 1% Antibiotic-Antimycotic (Gibco), unless otherwise noted. Cells were maintained in a humidified 37° C., 5% CO2 incubator. All experiments were performed with cells at passage 3-6. Chemicals and Reagents: dimethyl sulfoxide (DMSO) was purchased from Fisher Scientific and used to solubilize fenoldopam and SCH 39166. 2-mercaptoethanol was purchased from Bio-Rad Laboratories and added to RLT buffer prior to RNA isolation, as per Qiagen instructions. Fenoldopam and SCH 39166 were purchased from Cayman Chemical Company. TGFβ was purchased from InvivoGen. Fenoldopam, like a majority of […], has a characteristically short half-life. To take this into account we changed media daily to assess the efficacy of fenoldopam to inhibit fibrotic activation in vitro. RNA Isolation/qPCR Analysis: ARPE-19 cells were plated into 12 well plates (100,000 cells/well) and allowed to attach. Media was removed and replaced with the media specified in the “Cell Culture” section above, minus FBS. Cells were treated for 24 hours ±TGFβ (10 ng/mL), 10 μM fenoldopam, and 3 μM SCH 39166. RNA was isolated using the RNeasy Plus Mini Kit (Qiagen) and the manufacturer's protocol. Isolated RNA was converted to cDNA using the SuperScript VILO cDNA Synthesis Kit (Invitrogen) and the PTC-200 Peltier Thermal Cycler (MJ Research). Quantitative PCR (qPCR) was performed using FastStart Essential DNA Green Master (Roche) and LightCycler 96 (Roche).

ARPE-19 cells [2] = test: TGFβ-induced EMT in cultured RPE cells (morphology, qPCR of mesenchymal/profibrotic genes); settings: ARPE-19, 5 ng/ml TGF-β1, 24 h, 0% FBS; 1 μM CTC-6 or 10 μM MS-9
Method: Cell culture: ARPE-19 cells were purchased from ATCC (Manassas, VA, USA) were cultured in Eagle's minimal essential medium (EMEM) containing 10% fetal bovine serum (FBS) and antibiotic-antimycotic (Thermo Fisher Scientific) unless otherwise noted.
qPCR analysis: ARPE-19 cells were plated on tissue culture dishes (Thermo Fisher Scientific, 60×15 mm) in EMEM containing 10% FBS and allowed to attach and grow for 24 h. Cells were stimulated with 5 ng/ml TGF-β1 and 10 μM MS-9 or 1 μM CTC-6 in EMEM containing 0% FBS for 24 h prior to RNA isolation using the RNeasy Plus Mini Kit (Qiagen, Hilden, Germany) according to the manufacturer's instructions. Isolated RNA (500 ng) was then used to synthesize cDNA using SuperScript VILO (Invitrogen, Carlsbad, CA, USA). Quantitative PCR (qPCR) was performed using FastStart Essential DNA Green Master and analyzed with LightCycler 96 (Roche, Basel, Switzerland). Data are expressed as a fold change by ΔΔCt relative to the level of the GAPDH housekeeping gene, and normalized to control.
As expected, TGFβ stimulated morphological changes consistent with EMT (FIG. 2A) and enhanced expression of ECM genes: COL1A1 and COL3A1, connective tissue growth factor (CTGF) and alpha-smooth muscle actin (ACTA2) (FIG. 2B).

ARPE-19 cells [3] = test: Wound healing (wound migration) assay; settings: ARPE-19, ±TGFβ 10 ng/mL, 10 μM fenoldopam, 0-72 hours, media changed every 24 hours
Method: Cell culture: The human RPE cell line ARPE-19 was purchased from ATCC and cultured in Dulbecco's Modified Eagle Medium/Nutrient Mixture F-12 (DMEM/F-12) supplemented with 2.50 mM L-Glutamine, 15 mM HEPES Buffer, 10% fetal bovine serum (FBS), and 1% Antibiotic-Antimycotic (Gibco), unless otherwise noted. Cells were maintained in a humidified 37° C., 5% CO2 incubator. All experiments were performed with cells at passage 3-6. Wound Healing Assay: ARPE-19 cells were plated confluent into a 12-well plate (300,000 cells/well) and allowed to attach. Cells were exposed to a single scratch made with a p200 pipette tip. Media was removed and replaced with the media specified in the “Cell Culture” section above, without FBS. Cells were treated ±TGFβ (10 ng/mL), 10 μM fenoldopam replacing media conditions every 24 hours for wells treated with fenoldopam. Cells were imaged after treatment for 0, 24, 48, and 72 hours. Cells were imaged with an inverted phase-contract microscope and wound area was measured using ImageJ software as previously described.

ARPE-19 cells [4] = test: Proliferation assay (CellTiter-Fluor); settings: ARPE-19, ±2% FBS, 10 μM fenoldopam, 4 days
Method: (§1) Cell culture: The human RPE cell line ARPE-19 was purchased from ATCC and cultured in Dulbecco's Modified Eagle Medium/Nutrient Mixture F-12 (DMEM/F-12) supplemented with 2.50 mM L-Glutamine, 15 mM HEPES Buffer, 10% fetal bovine serum (FBS), and 1% Antibiotic-Antimycotic (Gibco), unless otherwise noted. Cells were maintained in a humidified 37° C., 5% CO2 incubator. All experiments were performed with cells at passage 3-6. Proliferation and Live/Dead Assays: ARPE-19 cells were plated into 96-well plates (1,000 cells/well) and allowed to attach. Media was removed and replaced with the media specified in the “Cell Culture” section above, with reduced FBS. Cells were treated for four days ±2% FBS, and 10 μM fenoldopam, replacing media conditions every 24 hours for wells treated with fenoldopam. After four days, CellTiter-Fluor™ (Promega) was added to each well according to the manufacturer and measured on a Flexstation 3 (Molecular Devices) plate reader for the proliferation assay. For the LIVE/DEAD™ assay, each component of the kit (Thermo Fisher Scientific) was added, then cells were incubated for 30 minutes. Fluorescent images were then taken using a Cytation 5 imaging reader (BioTek) and quantified for cytotoxicity/viability.

ARPE-19 cells [5] = test: LIVE/DEAD assay; settings: ARPE-19, ±2% FBS, 10 μM fenoldopam, 4 days
Method: as §1

ARPE-19 cells [6] = test: Fibronectin deposition (immunofluorescence); settings: ARPE-19, ±TGFβ 10 ng/mL, 10 μM fenoldopam, 4 days
Method: Cell culture: The human RPE cell line ARPE-19 was purchased from ATCC and cultured in Dulbecco's Modified Eagle Medium/Nutrient Mixture F-12 (DMEM/F-12) supplemented with 2.50 mM L-Glutamine, 15 mM HEPES Buffer, 10% fetal bovine serum (FBS), and 1% Antibiotic-Antimycotic (Gibco), unless otherwise noted. Cells were maintained in a humidified 37° C., 5% CO2 incubator. All experiments were performed with cells at passage 3-6. Fibronectin Deposition: ARPE-19 cells were plated into 96-well plates (10,000 cells/well) and allowed to attach. Media was removed and replaced with the media specified in the “Cell Culture” section above, without FBS. Cells were treated for four days ±TGFβ (10 ng/mL), 10 μM fenoldopam, replacing media conditions every 24 hours for wells treated with fenoldopam. Cells were fixed with 10% neutral buffered formalin (Sigma-Aldrich) for 15 minutes. Cells were permeabilized with 0.25% Triton X-100 (Sigma-Aldrich) and blocked with 1% BSA for 1 hour. Cells were incubated with mouse monoclonal IgG3 primary antibodies against fibronectin (Santa Cruz Biotechnology), which were diluted 1:400 in 0.25% Triton X-100 (Sigma-Aldrich) with 1% BSA. Cells were incubated with primary antibodies either in 4° C. overnight or at room temperature for 2 hours. […] Immunofluorescence was measured using a Cytation 5 imaging reader (BioTek).

CN1CCc2cc(Cl)c(O)cc2[C@H]2c3ccccc3CC[C@@H]21 [SCH 39166]
effect of D5 antagonist alone in the presence of TGFβ on profibrotic gene expression (ARPE-19 cells [1]; ARPE-19, TGFβ 10 ng/mL + 3 μM SCH 39166, 24 hours): no effect
effect of D5 antagonist on the antifibrotic effects of fenoldopam (profibrotic gene expression) (ARPE-19 cells [1]; ARPE-19, TGFβ 10 ng/mL + 10 μM fenoldopam + 3 μM SCH 39166, 24 hours): surmount the antifibrotic effects of fenoldopam

NCC1OC(c2ccncc2)Cc2c1ccc(O)c2O (centres unmarked) [CTC-6]
markers of EMT (morphology; COL1A1, COL3A1, CTGF, ACTA2 expression) (ARPE-19 cells [2]): blocked markers of EMT

Oc1ccc(C2CNCCc3c2cc(O)c(O)c3Cl)cc1 (centres unmarked) [fenoldopam]
antifibrotic response in wound migration assay (ARPE-19 cells [3]): robust antifibrotic response
antifibrotic response in proliferation assay (ARPE-19 cells [4]): robust antifibrotic response
expression of COL1A1, ACTA2, and FN1 compared to TGFβ exclusively (ARPE-19 cells [1]; ARPE-19, TGFβ 10 ng/mL, 10 μM fenoldopam, 24 hours): significant decrease
antifibrotic response in live/dead assay (ARPE-19 cells [5]): robust antifibrotic response
antifibrotic response in fibronectin deposition assay (ARPE-19 cells [6]): robust antifibrotic response
